The text below walks through data of ChEMBL document CHEMBL1146905, “Synthesis and evaluation of phenoxy acetic acid derivatives as [corrected] anti-mycobacterial agents” (2006).

What all share (assay type): functional
The test system of experiment [1] is Mycobacterium tuberculosis. As to the kind of experiment: Antimycobacterial activity against INH-resistant Mycobacterium tuberculosis by agar dilution method above 6.25 ug/ml.
The subject of experiment [2] is Mycobacterium tuberculosis. As to the kind of experiment: Antimycobacterial activity against INH-resistant Mycobacterium tuberculosis by agar dilution method. For orientation: In agar dilution the substance is mixed into plates at graded concentrations.
Experiment [3] deals with Mycobacterium tuberculosis. The experiment can be described thus: Antimycobacterial activity against INH-resistant Mycobacterium tuberculosis by agar dilution method at 6.25 ug/ml.

≈ marks a conversion by molar mass, not a printed value.

In general, Inhibition refers to the percentage by which the read-out fell short of the control. A higher Inhibition goes with a response far below the control. The MIC is the smallest concentration in the dilution series that meets the test's criterion for growth inhibition. Low values mean a more susceptible organism, high ones a less susceptible organism. Turning to `COc1cc(C2=NN(C(=O)c3ccc([N+](=O)[O-])cc3)C3CCCC23)c(C)cc1OCC(=O)O` (stereo not drawn), in experiment [1], the Inhibition is 30%. In experiment [2], this compound came in with an MIC above 6.25 µg/mL.
In turn, `COc1cc(C2=NN(C(=O)c3ccc([N+](=O)[O-])cc3)C(c3ccc(O)cc3)C2)c(C)cc1OCC(=O)O` (stereo not drawn) had an Inhibition in experiment [1] of 70%. In addition, in experiment [2], the MIC came to 6.25 µg/mL (≈ 12.4 µM).
Compound `COc1cc(C2=NN(C(=O)c3ccccc3)C3CCCC23)c(C)cc1OCC(=O)O` (stereo not drawn) registered an Inhibition in experiment [1] of 42%. Further, in experiment [2], the MIC is above 6.25 µg/mL.
A word on the inhibition: it is the change of the read-out against control, counted positive when it falls. In experiment [3], `COc1cc(C2=NN(C(=O)COc3ccc4ccccc4c3)C(Cc3ccccc3)C2)c(C)cc1OCC(=O)O` (stereo not drawn) registered an inhibition at 6.25 µg/mL of 90%. Moreover, 0.94 µg/mL (≈ 1.75 µM) was the least that counted as inhibitory in experiment [2] (MIC).
Regarding `COc1cc(C2=NN(C(=O)c3ccc([N+](=O)[O-])cc3)C(Cc3ccccc3)C2)c(C)cc1OCC(=O)O` (stereo not drawn), the Inhibition in experiment [1] was 50%. The compound further had an MIC in experiment [2] above 6.25 µg/mL.
In experiment [1], `COc1cc(C2=NN(C(=O)Cc3ccccc3)C3CCCC23)c(C)cc1OCC(=O)O` (stereo not drawn) showed an Inhibition of 24%. In experiment [2], this compound displayed an MIC above 6.25 µg/mL.
In experiment [1], `COc1cc(C2=NN(C(=O)COc3cccc4ccccc34)C3CCCC23)c(C)cc1OCC(=O)O` (stereo not drawn) gave an Inhibition of 50%. The same compound displayed a minimal inhibitory concentration (MIC) in experiment [2] above 6.25 µg/mL.
Regarding `COc1cc(C2=NN(C(=O)COc3cccc4ccccc34)C(c3ccc(O)cc3)C2)c(C)cc1OCC(=O)O` (stereo not drawn), the Inhibition in experiment [1] was determined as 58%. The minimal inhibitory concentration (MIC) in experiment [2] is above 6.25 µg/mL.
Consider `COc1cc(C2=NN(C(=O)COc3ccccc3)C(c3ccc(O)cc3)C2)c(C)cc1OCC(=O)O` (stereo not drawn), for which testing at 6.25 µg/mL in experiment [3] gave an inhibition of 99%. Moreover, in experiment [2], it took 0.64 µg/mL (≈ 1.3 µM) to inhibit growth (MIC).
As for `COc1cc(C2=NN(C(=O)COc3ccccc3)C(Cc3ccccc3)C2)c(C)cc1OCC(=O)O` (stereo not drawn), 6.25 µg/mL produced 92% inhibition in experiment [3]. In experiment [2], this compound registered an MIC above 6.25 µg/mL.
The compound `COc1cc(C2=NN(C(=O)Cc3ccccc3)C(Cc3ccccc3)C2)c(C)cc1OCC(=O)O` (stereo not drawn) gave an Inhibition in experiment [1] of 34%. Besides, in experiment [2], the MIC was above 6.25 µg/mL.
Taken in the same sequence, the figures for `COc1cc(C2=NN(C(=O)COc3ccc4ccccc4c3)C3CCCC23)c(C)cc1OCC(=O)O` (stereo not drawn) were 94% and 6.25 µg/mL (≈ 12.8 µM).
As for `COc1cc(C2=NN(C(=O)COc3ccc4ccccc4c3)C(c3ccc(O)cc3)C2)c(C)cc1OCC(=O)O` (stereo not drawn), in experiment [3], the inhibition at 6.25 µg/mL was determined as 99%. The minimum inhibitory concentration (MIC) in experiment [2] came to 0.7 µg/mL (≈ 1.29 µM).
`COc1cc(C2=NN(C(=O)c3ccccc3)C(c3ccc(O)cc3)C2)c(C)cc1OCC(=O)O` (stereo not drawn) showed an Inhibition in experiment [1] of 72%. In experiment [2], the MIC is above 6.25 µg/mL.
`COc1cc(C2=NN(C(=O)COc3cccc4ccccc34)C(Cc3ccccc3)C2)c(C)cc1OCC(=O)O` (stereo not drawn) gave an Inhibition in experiment [1] of 20%. This compound showed an MIC in experiment [2] above 6.25 µg/mL.
`COc1cc(C2=NN(C(=O)Cc3ccccc3)C(c3ccc(O)cc3)C2)c(C)cc1OCC(=O)O` (stereo not drawn) showed an Inhibition in experiment [1] of 22%. In addition, the MIC in experiment [2] is above 6.25 µg/mL.
Compound `COc1cc(C2=NN(C(=O)c3ccccc3)C(Cc3ccccc3)C2)c(C)cc1OCC(=O)O` (stereo not drawn) had an Inhibition in experiment [1] of 18%. The same compound yielded a minimum inhibitory concentration (MIC) in experiment [2] above 6.25 µg/mL.
Taken in the same sequence, the figures for `COc1cc(C2=NN(C(=O)COc3ccccc3)C3CCCC23)c(C)cc1OCC(=O)O` (stereo not drawn) were 85% and above 6.25 µg/mL.
In experiment [3], `NNC(=O)c1ccncc1` [ISONIAZID] had an inhibition at 6.25 µg/mL of 90%. This compound also returned a minimal inhibitory concentration (MIC) in experiment [2] of 1.56 µg/mL (≈ 11.4 µM).
